Data as given in PubChem BioAssay AID504473 (NMMLSC, 2011).
Active and inactive are the calls of the source.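 How the source made its calls: active means GFP ratio to DMSO above 1.5 or below 0.66; inactive means the rest.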

How the values were obtained:
Assay in all cases: expression changes of rapamycin-responsive GFP fusion proteins, S. cerevisiae, GFP-tagged clone panel, flow cytometry (AID 504473);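 further: median GFP fluorescence of the cells measured by high-throughput flow cytometry; test concentration not given here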
YPR184W = settings: S. cerevisiae GFP-tagged strains, 3 h
YGR034W = settings: S. cerevisiae GFP-tagged strains, 3 h
YHR087W = settings: S. cerevisiae GFP-tagged strains, 3 h
YGL062W = settings: S. cerevisiae GFP-tagged strains, 3 h
YEL060C = settings: S. cerevisiae GFP-tagged strains, 3 h
YPL265W = settings: S. cerevisiae GFP-tagged strains, 3 h
YBR248C = settings: S. cerevisiae GFP-tagged strains, 3 h
YGL135W = settings: S. cerevisiae GFP-tagged strains, 3 h
YGL147C = settings: S. cerevisiae GFP-tagged strains, 3 h
YOR182C = settings: S. cerevisiae GFP-tagged strains, 3 h
YER151C = settings: S. cerevisiae GFP-tagged strains, 3 h
YMR307W = settings: S. cerevisiae GFP-tagged strains, 3 h
YKR094C = settings: S. cerevisiae GFP-tagged strains, 3 h
YEL063C = settings: S. cerevisiae GFP-tagged strains, 3 h
YOR375C = settings: S. cerevisiae GFP-tagged strains, 3 h
YLR185W = settings: S. cerevisiae GFP-tagged strains, 3 h
YHL021C = settings: S. cerevisiae GFP-tagged strains, 3 h
YGR088W = settings: S. cerevisiae GFP-tagged strains, 3 h
YIL043C = settings: S. cerevisiae GFP-tagged strains, 3 h
YML034W = settings: S. cerevisiae GFP-tagged strains, 3 h
YLR367W = settings: S. cerevisiae GFP-tagged strains, 3 h
[1] = target: General amino acid permease AGP1 (Saccharomyces cerevisiae S288c) (UniProt P25376); settings: S. cerevisiae GFP-tagged strains, 3 h, YCL025C
YLR058C = settings: S. cerevisiae GFP-tagged strains, 3 h
YNR001C = settings: S. cerevisiae GFP-tagged strains, 3 h
YLR109W = settings: S. cerevisiae GFP-tagged strains, 3 h
YBR208C = settings: S. cerevisiae GFP-tagged strains, 3 h
YPL111W = settings: S. cerevisiae GFP-tagged strains, 3 h
YMR120C = settings: S. cerevisiae GFP-tagged strains, 3 h
YLL026W = settings: S. cerevisiae GFP-tagged strains, 3 h
YAL060W = settings: S. cerevisiae GFP-tagged strains, 3 h
YPL131W = settings: S. cerevisiae GFP-tagged strains, 3 h
YLL039C = settings: S. cerevisiae GFP-tagged strains, 3 h
YGR019W = settings: S. cerevisiae GFP-tagged strains, 3 h
YEL071W = settings: S. cerevisiae GFP-tagged strains, 3 h
YGL036W = settings: S. cerevisiae GFP-tagged strains, 3 h
YCR005C = settings: S. cerevisiae GFP-tagged strains, 3 h
YJL144W = settings: S. cerevisiae GFP-tagged strains, 3 h
YBL087C = settings: S. cerevisiae GFP-tagged strains, 3 h
YNL015W = settings: S. cerevisiae GFP-tagged strains, 3 h
YLR142W = settings: S. cerevisiae GFP-tagged strains, 3 h
YPL150W = settings: S. cerevisiae GFP-tagged strains, 3 h
YBR072W = settings: S. cerevisiae GFP-tagged strains, 3 h
YBR139W = settings: S. cerevisiae GFP-tagged strains, 3 h
YOR136W = settings: S. cerevisiae GFP-tagged strains, 3 h
YML063W = settings: S. cerevisiae GFP-tagged strains, 3 h
YDL204W = settings: S. cerevisiae GFP-tagged strains, 3 h
YOR063W = settings: S. cerevisiae GFP-tagged strains, 3 h
YLR287C-A = settings: S. cerevisiae GFP-tagged strains, 3 h

General amino acid permease AGP1 (Saccharomyces cerevisiae S288c), sequence (P25376 whole entry, looked up): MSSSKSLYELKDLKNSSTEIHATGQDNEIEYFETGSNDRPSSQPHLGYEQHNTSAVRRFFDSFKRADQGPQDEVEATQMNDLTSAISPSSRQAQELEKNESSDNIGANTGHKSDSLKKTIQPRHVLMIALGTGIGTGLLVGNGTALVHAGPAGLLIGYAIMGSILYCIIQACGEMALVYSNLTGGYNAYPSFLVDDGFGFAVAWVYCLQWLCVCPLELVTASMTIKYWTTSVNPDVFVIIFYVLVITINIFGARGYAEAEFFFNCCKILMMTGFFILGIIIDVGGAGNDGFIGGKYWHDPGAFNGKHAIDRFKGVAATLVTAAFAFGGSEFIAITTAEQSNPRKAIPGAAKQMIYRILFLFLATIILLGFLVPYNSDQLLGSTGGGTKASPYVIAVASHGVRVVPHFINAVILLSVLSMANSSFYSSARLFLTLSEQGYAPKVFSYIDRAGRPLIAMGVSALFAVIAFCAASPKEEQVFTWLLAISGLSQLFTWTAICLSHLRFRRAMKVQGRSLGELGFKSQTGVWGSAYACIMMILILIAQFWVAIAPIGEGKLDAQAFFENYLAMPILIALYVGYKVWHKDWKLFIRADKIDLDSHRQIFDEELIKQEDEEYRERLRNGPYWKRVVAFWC

## CNc1nc(N)c([N+](=O)[O-])c(Nc2cccc(F)c2)n1
YPR184W
  GFP ratio to DMSO: 1.61
YGR034W
  GFP ratio to DMSO: 0.814 (inactive)
YHR087W
  GFP ratio to DMSO: 1.64
YGL062W
  GFP ratio to DMSO: 2.1
YEL060C
  GFP ratio to DMSO: 1.88
YPL265W
  GFP ratio to DMSO: 1.93
YBR248C
  GFP ratio to DMSO: 1.03 (inactive)
YGL135W
  GFP ratio to DMSO: 0.899 (inactive)
YGL147C
  GFP ratio to DMSO: 0.799 (inactive)
YOR182C
  GFP ratio to DMSO: 0.657 (inactive)
YER151C
  GFP ratio to DMSO: 1.03 (inactive)
YMR307W
  GFP ratio to DMSO: 0.845 (inactive)
YKR094C
  GFP ratio to DMSO: 0.898 (inactive)
YEL063C
  GFP ratio to DMSO: 1.23 (inactive)
YOR375C
  GFP ratio to DMSO: 1.83
YLR185W
  GFP ratio to DMSO: 0.893 (inactive)
YHL021C
  GFP ratio to DMSO: 1.99
YGR088W
  GFP ratio to DMSO: 1.71
YIL043C
  GFP ratio to DMSO: 1.04 (inactive)
YML034W
  GFP ratio to DMSO: 0.944 (inactive)
YLR367W
  GFP ratio to DMSO: 0.896 (inactive)
[1]
  GFP ratio to DMSO: 1.69
YLR058C
  GFP ratio to DMSO: 1.02 (inactive)
YNR001C
  GFP ratio to DMSO: 1.57
YLR109W
  GFP ratio to DMSO: 1.39 (inactive)
YBR208C
  GFP ratio to DMSO: 2.34
YPL111W
  GFP ratio to DMSO: 2.48
YMR120C
  GFP ratio to DMSO: 0.686 (inactive)
YLL026W
  GFP ratio to DMSO: 1.75
YAL060W
  GFP ratio to DMSO: 2.27
YPL131W
  GFP ratio to DMSO: 0.93 (inactive)
YLL039C
  GFP ratio to DMSO: 1.49 (inactive)
YGR019W
  GFP ratio to DMSO: 1.42 (inactive)
YEL071W
  GFP ratio to DMSO: 2.83
YGL036W
  GFP ratio to DMSO: 0.845 (inactive)
YCR005C
  GFP ratio to DMSO: 4.96
YJL144W
  GFP ratio to DMSO: 1.39 (inactive)
YBL087C
  GFP ratio to DMSO: 0.567
YNL015W
  GFP ratio to DMSO: 1.62
YLR142W
  GFP ratio to DMSO: 0.857 (inactive)
YPL150W
  GFP ratio to DMSO: 0.959 (inactive)
YBR072W
  GFP ratio to DMSO: 1.53
YBR139W
  GFP ratio to DMSO: 1.12 (inactive)
YOR136W
  GFP ratio to DMSO: 1.43 (inactive)
YML063W
  GFP ratio to DMSO: 0.897 (inactive)
YDL204W
  GFP ratio to DMSO: 1.33 (inactive)
YOR063W
  GFP ratio to DMSO: 0.919 (inactive)
YLR287C-A
  GFP ratio to DMSO: 0.753 (inactive)
